According to patent US9955691B2, “Macrocyclic picolinamides as fungicides” (DOW AGROSCIENCES LLC, priority 2014, dated 2018):

Assays:
Format in all cases: in vivo
Conditions in all cases: 100 ppm, 1 DP (1 Day Protectant)
[1] = test system: Blumeria graminis f. sp. hordei; experiment: Fungicidal activity: Barley Powdery Mildew (ERYSGH)
Description: Technical grades of materials were dissolved in acetone, which were then mixed with nine volumes of water containing 110 ppm Triton X-100. The fungicide solutions were applied onto wheat seedlings using an automated booth sprayer to run-off. All sprayed plants were allowed to air dry prior to further handling. All fungicides were evaluated using the aforementioned method for their activity vs. all target diseases, unless stated otherwise. Wheat leaf blotch and brown rust activity were also evaluated using track spray applications, in which case the fungicides were formulated as EC formulations, containing 0.1% Trycol 5941 in the spray solutions. Wheat plants (variety Yuma) were grown from seed in a greenhouse in 50% mineral soil/50% soil-less Metro mix until the first leaf was fully emerged, with 7-10 seedlings per pot. These plants were inoculated with an aqueous spore suspension of Septoria tritici either prior to or after fungicide treatments. After inoculation the plants were kept in 100% relative humidity (one day in a dark dew chamber followed by two to three days in a lighted dew chamber at 20° C.) to permit spores to germinate and infect the leaf. The plants were then transferred to a greenhouse set at 20° C. for disease to develop. When disease symptoms were fully expressed on the 1st leaves of untreated plants, infection levels were assessed on a scale of 0 to 100 percent disease severity. Percent disease control was calculated using the ratio of disease severity on treated plants relative to untreated plants. Evaluation of Fungicidal Activity: Barley Powdery Mildew (Blumeria graminis f. Sp. hordei; Synonym: Erysiphe graminis f. Sp. hordei; Bayer Code […]) Barley seedlings (variety Harrington) were propagated in soil-less Metro mix, with each pot having 8 to 12 plants, and used in the test when first leaf was fully emerged. Test plants were inoculated by dusting with infected stock plants 24 hr after fungicide treatments. After inoculation the plants were kept in a greenhouse set at 20° C. for disease to develop. Fungicide formulation, application and disease assessment on the sprayed leaves followed the procedures as described in the Example A.

[2] = test system: Glomerella lagenarium; Anamorph: Colletotrichum lagenarium; experiment: Fungicidal activity: Cucumber Anthracnose (COLLLA)
Description: Technical grades of materials were dissolved in acetone, which were then mixed with nine volumes of water containing 110 ppm Triton X-100. The fungicide solutions were applied onto wheat seedlings using an automated booth sprayer to run-off. All sprayed plants were allowed to air dry prior to further handling. All fungicides were evaluated using the aforementioned method for their activity vs. all target diseases, unless stated otherwise. Wheat leaf blotch and brown rust activity were also evaluated using track spray applications, in which case the fungicides were formulated as EC formulations, containing 0.1% Trycol 5941 in the spray solutions. Wheat plants (variety Yuma) were grown from seed in a greenhouse in 50% mineral soil/50% soil-less Metro mix until the first leaf was fully emerged, with 7-10 seedlings per pot. These plants were inoculated with an aqueous spore suspension of Septoria tritici either prior to or after fungicide treatments. After inoculation the plants were kept in 100% relative humidity (one day in a dark dew chamber followed by two to three days in a lighted dew chamber at 20° C.) to permit spores to germinate and infect the leaf. The plants were then transferred to a greenhouse set at 20° C. for disease to develop. When disease symptoms were fully expressed on the 1st leaves of untreated plants, infection levels were assessed on a scale of 0 to 100 percent disease severity. Percent disease control was calculated using the ratio of disease severity on treated plants relative to untreated plants. Evaluation of Fungicidal Activity: Cucumber Anthracnose (Glomerella lagenarium; Anamorph: Colletotrichum lagenarium; Bayer Code COLLLA) Cucumber seedlings (variety Bush Pickle) were propagated in soil-less Metro mix, with each pot having one plant, and used in the test when 12 to 14 days old. Test plants were inoculated with an aqueous spore suspension of Colletotrichum lagenarium 24 hr after fungicide treatments. After inoculation the plants were kept in a dew room at 22° C. with 100% relative humidity for 48 hr to permit spores to germinate and infect the leaf. The plants were then transferred to a growth room set at 22° C. for disease to develop. Fungicide formulation, application and disease assessment on the sprayed leaves followed the procedures as described in the Example A.

Alternaria solani = experiment: Fungicidal activity: Tomato Early Blight (ALTESO)
Description: Technical grades of materials were dissolved in acetone, which were then mixed with nine volumes of water containing 110 ppm Triton X-100. The fungicide solutions were applied onto wheat seedlings using an automated booth sprayer to run-off. All sprayed plants were allowed to air dry prior to further handling. All fungicides were evaluated using the aforementioned method for their activity vs. all target diseases, unless stated otherwise. Wheat leaf blotch and brown rust activity were also evaluated using track spray applications, in which case the fungicides were formulated as EC formulations, containing 0.1% Trycol 5941 in the spray solutions. Wheat plants (variety Yuma) were grown from seed in a greenhouse in 50% mineral soil/50% soil-less Metro mix until the first leaf was fully emerged, with 7-10 seedlings per pot. These plants were inoculated with an aqueous spore suspension of Septoria tritici either prior to or after fungicide treatments. After inoculation the plants were kept in 100% relative humidity (one day in a dark dew chamber followed by two to three days in a lighted dew chamber at 20° C.) to permit spores to germinate and infect the leaf. The plants were then transferred to a greenhouse set at 20° C. for disease to develop. When disease symptoms were fully expressed on the 1st leaves of untreated plants, infection levels were assessed on a scale of 0 to 100 percent disease severity. Percent disease control was calculated using the ratio of disease severity on treated plants relative to untreated plants. Evaluation of Fungicidal Activity: Tomato Early Blight (Alternaria solani; Bayer Code […]) Tomato plants (variety Outdoor Girl) were propagated in soil-less Metro mix, with each pot having one plant, and used when 12 to 14 days old. Test plants were inoculated with an aqueous spore suspension of Alternaria solani 24 hr after fungicide treatments. After inoculation the plants were kept in 100% relative humidity (one day in a dark dew chamber followed by two to three days in a lighted dew chamber at 20° C.) to permit spores to germinate and infect the leaf. The plants were then transferred to a growth room at 22° C. for disease to develop. Fungicide formulation, application and disease assessment on the sprayed leaves followed the procedures as described in the Example A.

COc1ccnc(C(=O)N[C@H]2COC[C@H](Cc3ccccc3)[C@@H](Cc3ccccc3)[C@H](C)OC2=O)c1OCOC(C)=O [Cmpd. 3, ((2-(((3S,7R,8R,9S)-7,8-dibenzyl-9-methyl-2-oxo-1,5-dioxonan-3-yl)carbamoyl)-4-methoxypyridin-3-yl)oxy)methyl acetate]
ERYSGH disease control rating [1]: A (>70) | COLLLA disease control rating [2]: A (>70) | ALTESO disease control rating (Alternaria solani): A (>70)

CCCC[C@@H]1[C@@H](Cc2ccccc2)COC[C@H](NC(=O)c2nccc(OC)c2OCOC(=O)C(C)C)C(=O)O[C@H]1C [compound 1]
ERYSGH disease control rating [1]: A (>70) | COLLLA disease control rating [2]: A (>70) | ALTESO disease control rating (Alternaria solani): A (>70)

COc1ccnc(C(=O)N[C@H]2COC[C@H](c3ccccc3)[C@@H](c3ccccc3)[C@H](C)OC2=O)c1OCOC(C)=O [compound 7]
ERYSGH disease control rating [1]: A (>70) | COLLLA disease control rating [2]: A (>70) | ALTESO disease control rating (Alternaria solani): A (>70)

CCCC[C@@H]1[C@@H](Cc2ccc(C(F)(F)F)cc2)COC[C@H](NC(=O)c2nccc(OC)c2OCOC(C)=O)C(=O)O[C@H]1C [compound 16]
ERYSGH disease control rating [1]: A (>70) | COLLLA disease control rating [2]: A (>70) | ALTESO disease control rating (Alternaria solani): A (>70)

COc1ccnc(C(=O)N[C@H]2COC[C@H](Cc3ccccc3)[C@@H](Cc3ccccc3)[C@H](C)OC2=O)c1OC(C)=O [compound 27]
ERYSGH disease control rating [1]: B (≤70) | COLLLA disease control rating [2]: A (>70) | ALTESO disease control rating (Alternaria solani): A (>70)

COc1ccnc(C(=O)N[C@H]2COC[C@H](CC3CC3)[C@@H](c3ccccc3)[C@H](C)OC2=O)c1OC(C)=O [compound 100]
ERYSGH disease control rating [1]: A (>70) | COLLLA disease control rating [2]: A (>70) | ALTESO disease control rating (Alternaria solani): A (>70)
